Data reported in paper PMC10539800, “Small-molecule inhibitors of the PDZ domain of Dishevelled proteins interrupt Wnt signalling” (Magnetic resonance, 2021).

How the values were obtained:
[1] = biological target: T1, Dvl-1 PDZ (Homo sapiens, UniProt O14640, C338S/V250I); experiment: Binding constant by NMR titration; design: made in house; host or cells: E. coli BL21 (DE3); details: mean ± SD of at least six residues, read-out: K D Dvl-1 PDZ
T1 sequence (O14640 245-338 V250I/C338S): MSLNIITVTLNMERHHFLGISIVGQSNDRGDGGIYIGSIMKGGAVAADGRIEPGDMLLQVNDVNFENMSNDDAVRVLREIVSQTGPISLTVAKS
Protocol: Chemical shift perturbations were obtained by comparing the ^1H-^15N backbone resonances of protein alone to those of protein–ligand complex. […] 1 Δδ=[ΔδH]^2+[ΔδN5]^2/2 Here ΔδN and ΔδH are the amide nitrogen and amide proton chemical shift differences between the free and the bound states of the protein. In order to estimate binding constants, titration experiments monitored by NMR were done. A series of ^1H-^15N HSQC were recorded as a function of ligand concentration. Residues showing a continuous chemical shift change and for which the intensity remained strong were classified as being in fast exchange. […] [LT] is the total concentration of the compound, and [PT] is the total concentration of the protein. K D is the equilibrium dissociation constant. The K D values are reported as means ± standard deviations of at least six residues influenced upon binding of the ligand.

[2] = biological target: T2, Dvl-3 PDZ (Homo sapiens, UniProt Q92997); experiment: Binding constant by NMR titration; details: by NMR; mean ± SD of at least six residues; read-out: K D Dvl-3 PDZ
T2 construct: spectra of Dvl-3 PDZ in the absence and presence of the compound; His-tag (cleaved yes); made in house
T2 sequence (Q92997 243-336): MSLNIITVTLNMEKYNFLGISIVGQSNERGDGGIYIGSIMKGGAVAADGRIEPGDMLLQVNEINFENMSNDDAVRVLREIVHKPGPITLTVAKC
Text: (§1) K D is the equilibrium dissociation constant.

[3] = tested on: Dvl-3 PDZ; experiment: Binding constant by NMR titration; design: species or system human; details: from NMR K D values
Text: as §1

[4] = biological target: T2, Dvl-3 PDZ; experiment: NMR 1H-15N HSQC chemical shift perturbation; type: binding; details: Dvl-3 PDZ; average of the three strongest shifting cross peaks
Protocol: The results of virtual screening were checked experimentally by comparing 2D ^1H-^15N HSQC (heteronuclear single quantum correlation) spectra of Dvl-3 PDZ in the absence and presence of the compound to elucidate ligand-induced changes of chemical shifts. Chemical shift perturbation differences ( Δ CSP, representing the average of the three strongest shifting cross peaks according to Eq. 1) were evaluated in cases where the residues responding strongest are inside the area defined by Fig. 1a. […] In most cases, the signals of residues S263, V287, and R320 (Fig. 1a) within the conserved binding site were most strongly perturbed (Fig. S2). With the Δ CSP of 0.12 ppm, the isoleucine-derived compound 1 ((2,3-dihydrobenzo[b][1,4]dioxin-6-yl)sulfonyl)-L-isoleucine containing a sulfonamide moiety was detected initially as one of the best “hits” according to chemical shift changes. The sulfonamide is a well-known moiety in drug discovery (Mathvink et al., 1999; Wu et al., 1999; Sleight et al., 1998; O'Brien et al., 2000; Tellew et al., 2003).
Two-dimensional ^1H-^15N HSQC spectra were used to screen a library of 212 compounds designed by the company Enamine for PDZ domains. 50 µM of ^15N -labelled protein samples was prepared in a 20 mM sodium phosphate buffer, containing 50 mM sodium chloride, 0.02 % ( w/v ) NaN3 , at pH 7.4. Stock solutions of small molecules were prepared in DMSO-d6 at a concentration of 160 mM. A ^1H-^15N HSQC spectrum of Dvl PDZ was acquired at 300 K with 5 % DMSO-d6 in the absence of ligand as reference spectrum. Mixtures of 16 compounds were added to ^15N -labelled Dvl PDZ at eightfold molar excess each. The final concentration of DMSO-d6 in the protein–ligand solutions was 5 %. Spectra were acquired with eight scans and 256 points in the indirect dimension. […] The active compound was obtained through successive deconvolution. Experiments were recorded on a Bruker DRX600 spectrometer equipped with a triple-resonance cryoprobe. The preparation of samples was done automatically by a Tecan Genesis RSP 150 pipetting robot. Spectra were analysed using the programs TOPSPIN and SPARKY (Goddard and Kneller, 2003).
50 µM of ^15N -labelled protein samples was prepared in a 20 mM sodium phosphate buffer containing 50 mM sodium chloride, 0.02 % ( w/v ) NaN3 , at pH 7.4. Stock solutions of small molecules were prepared in DMSO-d6 at a concentration of 160 mM. A ^1H-^15N HSQC spectrum of Dvl PDZ was acquired at 300 K with 5 % DMSO-d6 in the absence of ligand as reference spectrum. Mixtures of 16 compounds were added to ^15N -labelled Dvl PDZ at eightfold molar excess each. The final concentration of DMSO-d6 in the protein–ligand solutions was 5 %. Spectra were acquired with eight scans and 256 points in the indirect dimension.
The active compound was obtained through successive deconvolution. Experiments were recorded on a Bruker DRX600 spectrometer equipped with a triple-resonance cryoprobe. The preparation of samples was done automatically by a Tecan Genesis RSP 150 pipetting robot. Spectra were analysed using the programs TOPSPIN and SPARKY.

[5] = biological target: Dvl-1 PDZ; design: method as in Kim et al., 2016; details: value from literature; ref Kim et al., 2016; read-out: K D Dvl-1 PDZ; cited from earlier work

Kd [1]	Kd [2]	discrimination between Dvl-3 PDZ and Dvl-1 PDZ (in words) [3]	Chemical shift perturbation ΔCSP [4]	SMILES	Kd [5]
160 ± 14.6 µM	141 ± 14.1 µM	did not distinguish	> 0.2 ppm	O=C(O)c1cc(F)ccc1NS(=O)(=O)c1ccc2c(c1)CCCC2 [Compound 5]	
				CCOC(=O)c1cc2cc(O)ccc2n1CC(=O)NCCN1CCCCC1 [Ky-02327, ethyl 5-hydroxy-1-(2-oxo-2-((2-(piperidin-1-yl)ethyl)amino)ethyl)-1H-indole-2-carboxylate]	8.3 ± 0.8 µM
